Test system: Plasmodium falciparum
Assay: GSK_TCMDC: Inhibition of Plasmodium falciparum 3D7 in whole erythrocytes, using parasite LDH activity as an index of growth.
Format: functional, organism-based
Settings: Plasmodium falciparum, 3D7

Structure (SMILES)	XC50 [nM]
CCN1CCC(N(CCCCCCCCc2ccc(C(F)(F)F)cc2)C(=O)Cn2c(CCc3cccc(F)c3F)cc(=O)c3ccccc32)CC1	1200
O=C(NCCCCCN1CCC(c2ccc(O)cc2)CC1)c1ccc(-c2ccccc2)cc1	929
CN1CCN(Cc2nc(-c3ccc4c(Nc5ccc(F)c(O)c5)ccnc4c3)cs2)CC1	171
COc1ccc(-c2cccc(NC(=O)c3ccc(C#N)cc3)c2)cc1CNC(C)C	808
Nc1ccc2nc(C=Cc3ccc(Cl)cc3)[nH]c2c1	941
COc1cc2ccccc2c(CNCCCCCCNCc2c(OC)c(OC)cc3ccccc23)c1OC	1110
N#Cc1cccc(CN2CCCN(Cc3ccc(C(=O)Nc4ccc(Cl)cc4)cc3)CC2)c1	882
CC(=Nc1ccc(Cl)c(Cl)c1)N(C)C	540
Nc1nccc2ccc(-c3cccnc3)cc12	419
CC(=O)c1cc(N2CCOCC2)ccc1N	913
CC(=O)N(C)C1CCN(Cc2cccc(-c3ccc(-c4nc5cc(F)ccc5[nH]4)cc3)c2)C1 (configuration not stated)	957
CCCCn1c(C(C)Oc2ccc(Cl)cc2Cl)nc2cc(S(N)(=O)=O)ccc21 (configuration not stated)	707
CC(C)[C@H](NC(=O)c1ccc(O)c(-c2ccc(Cl)c(Cl)c2)c1)C(=O)NCCN1CCOCC1	911
CC(=O)Nc1ncc(C(=O)Nc2cccc(-c3ccc(-c4nc5cccc(C)c5[nH]4)cc3)c2)s1	643
COc1cccc(-c2ccc3ccnc(N)c3c2)c1	408
COc1ccc(C)c(Nc2ccnc(Nc3cccc(-c4nc5ccccc5[nH]4)c3)n2)c1	716
CC(C)(C)c1cc(C(=O)Nc2cccnc2)cc(C(=O)Nc2cccnc2)c1	761
Cc1cc(=NN=CC=Cc2ccccc2)c2ccc(F)cc2[nH]1	590
CCC(NC[C@@H](O)[C@H](Cc1ccccc1)NC(=O)c1cc(C2CCCC2)cc(N2CCCC2=O)c1)c1cccc(Cl)c1 (some centres not stated)	35.2
O=C(/C=C/c1ccc(Cl)c(Cl)c1)NCCCCCN1CCC(C(=O)Nc2ccc(Cl)cc2)CC1	776
CC(Cc1ccc(CN(CC(N)=O)Cc2ccc(CC(C)NCCc3cccc(Cl)c3)cc2)cc1)NCCc1cccc(Cl)c1 (configuration not stated)	665
N#Cc1ccc(-c2cnc3ccc(NCc4ccc(S(N)(=O)=O)cc4)nn23)cc1	785
COC(=O)c1c(NC(=O)c2cccc(C(F)(F)F)c2)sc2c1CCN(Cc1ccccc1)C2	1340
CC(=O)c1ccc2c(c1)C(NC(=O)c1cccc(Cl)c1Cl)C(CO)C(C)(C)O2 (configuration not stated)	687
Cc1sc2cc(Cl)cc(Cl)c2c1S(=O)(=O)Nc1ccc2nccc(N3CCNCC3)c2c1	124

Structure (SMILES)	XC50 [nM]
COc1ccc(CNC2CCN(C)CC2)cc1-c1ccc(S(=O)(=O)NC2CCC2)c(F)c1	840
CC(=O)Oc1cc(C(=O)Nc2ccc(Cl)cc2)cc2ccccc12	856
COc1ccc2ccccc2c1C=NNc1ccnc2cc(Cl)ccc12	615
COc1ccc(-c2ccc(NC(=O)c3cccc(Cl)c3)cc2)cc1CN1CCC(O)CC1	712
COc1ccc(CCn2c(C3CCCCC3)nc3oc4ccccc4c(=O)c3c2=O)cc1	952
CC1(C)NC(N)=NC(=N)N1OCc1ccc2ccccc2c1CON1C(=N)N=C(N)NC1(C)C	663
COc1ccc(Cn2c(SCc3ccc(C)cc3)nc3cc(OC)c(OC)cc3c2=N)cc1Cl	977
CC1CN(c2ccc(NC(=O)c3ccsc3)cc2C(=O)N2CCN(Cc3ccc(C(C)(C)C)cc3)CC2)CC(C)O1 (configuration not stated)	866
O=C(NCCN1CCCC1)c1ccc(-c2ccc(-c3nc4cc(C(F)(F)F)ccc4[nH]3)s2)cc1	752
Cc1c(C(=O)NCc2ccncc2)sc2nc(-c3cccc([N+](=O)[O-])c3)cn12	913
Cc1ccc(CNC(=N)NC(=O)c2nc(Cl)c(NCc3ccc(Cl)cc3)nc2N)c(C)c1	167
NC(=O)c1cccc(-n2ccc3cc(CNC4Cc5ccccc5C4)ccc32)c1	1130
Oc1ccc2[nH]cc(C3=CCN(Cc4ccccc4)CC3)c2c1	983
CC(C)(C)COC(=O)c1ccc(NC(=O)N[C@@H](Cc2ccc(O)cc2)C(=O)NC2CCN(Cc3ccc(O)cc3)C2)cc1 (some centres not stated)	668
O=C(/C=C/c1ccc(-c2nc3ccc(Cl)cc3[nH]2)cc1)NC1CCN(Cc2ccccc2)CC1	610
O=S(=O)(NCCN1CCCC1)c1ccc(-c2ccc(CNCc3ccc(F)cc3)cc2)cc1	794
O=C(Nc1cccc(-c2cc(-c3c(Cl)cccc3Cl)no2)c1)c1cnc2ccccc2c1	1100
CCNc1cc(C(=O)N[C@@H](Cc2ccccc2)[C@H](O)CNC2CCC(F)(F)CC2)c(F)c(N2CCCCS2(=O)=O)c1	212
Nc1nc(N)c2c(ccn2Cc2cc3c(cc2Cl)OCO3)n1	765
Cn1c(C2CC3CCC(C2)N3CC2CCC(NC(=O)/C=C/c3ccc(Cl)c(Cl)c3)CC2)nc2ccccc21 (configuration not stated)	563
Cc1ccc(NC(=O)c2ccc(CN3CCCN(Cc4cccc(O)c4)CC3)cc2)cc1C	864
CCCc1ccc2c(c1O)CCC(N(CCC)CCC)C2 (configuration not stated)	886
CCCCNC(=O)[C@@H](NC(=O)c1ccc(O)c(-c2ccc(Cl)c(Cl)c2)c1)C(C)C	230
O=C(/C=C/c1ccc(Cl)c(Cl)c1)NCCCCCN1CCCN(C(=O)Nc2ccc([N+](=O)[O-])cc2)CC1	615
Cc1cccc2nc(-c3cccc(-c4ccc(CNCCNC(=O)c5ccnn5C)cc4)c3)[nH]c12	167

Structure (SMILES)	XC50 [nM]
FC(F)(F)c1ccc2c(NCCNc3ccnc4cc(C(F)(F)F)ccc34)ccnc2c1	32.7
O=C(NC(c1ccc(Cl)cc1)c1ccc2cccnc2c1O)c1ccccc1 (configuration not stated)	558
CCC(ON1C(N)=NC(N)=NC1(C)C)c1ccccc1 (configuration not stated)	33.5
CN1CCCN(Cc2cccc(-c3cccc(NS(=O)(=O)c4cccc5cccnc45)c3)c2)CC1	764
COc1cc2nc(C)nc(Nc3cccc(Br)c3)c2cc1OC	356
Cn1nc(-c2cccc(CN[C@@H]3CCc4ccc(O)cc43)c2)c2cnc(NCCCN3CCCC3)nc21	831
O=S(=O)(Nc1cccc(CCN2CCCCC2CCN2CCCC2)c1)c1ccc2ccccc2c1 (configuration not stated)	1070
S=C(NCCc1ccc(Cl)cc1)N1CCC(CN2CCC(c3c[nH]c4ccccc34)CC2)CC1	1000
COc1ccc2nccc(N3CCN(CCNCc4ccc5c(n4)NC(=O)CS5)CC3)c2c1	950
CNc1ccc(CNCc2cccc(-c3ccc(-c4nc5cccc(C)c5[nH]4)s3)c2)cc1	987
N#Cc1ccc2[nH]c(-c3cc(-c4cccc(F)c4)cnc3N)nc2c1	193
COc1cc2nc(NCc3ccccc3)nc(NCc3ccccc3)c2cc1OC	151
CCOC(=O)CCCCOc1c(OC)cc(Cc2cnc(N)nc2N)cc1OC	29.9
N#Cc1ccc2c(c1)CN(CCC1CCC(NC(=O)c3cc4cnccc4[nH]3)CC1)CC2 (configuration not stated)	801
COc1ccc(Nc2nccc(N3CCC(NC(=O)c4cccc(NC(C)=O)c4)C3)n2)cc1 (configuration not stated)	994
Cc1cc(=NN=Cc2ccc(F)cc2)c2cccc(C)c2[nH]1	779
CCNc1cc(C(=O)N[C@@H](Cc2ccccc2)[C@H](O)CNCCc2ccccc2)cc(N2CCCC2=O)c1	844
CC(C)CNC(=O)CN1C(=O)C(c2ccccc2)(c2ccccc2)N=C1N	815
Cc1cccc2nc(-c3cccc(-c4ccc(NC(=O)Cc5ccc[n+]([O-])c5)cc4)c3)[nH]c12	627
CCC(C)CN1C(=O)C(c2ccccc2)(c2ccccc2)N=C1N (configuration not stated)	712
S=C(NCCCCCN1CCC(c2c[nH]c3ccccc23)CC1)Nc1cccc(I)c1	845
O=C(c1cc(-c2cccs2)n[nH]1)N1CCN(S(=O)(=O)c2ccc(Cl)cc2)CC1	292
COC(=O)c1cccc(CNCc2ccc(-c3ccc(-c4nc5ccccc5[nH]4)s3)cc2)c1	289
O=C(NC1CCN(Cc2ccccc2)CC1)c1cc(-c2cccnc2)nc2ccc(Cl)cc12	759
CCc1c[nH]c2c(N3CCCS3(=O)=O)cc(C(=O)N[C@@H](Cc3ccccc3)[C@H](O)CNC(C)(C)c3cccc(C(F)(F)F)c3)cc12	228

Structure (SMILES)	XC50 [nM]
CC1(C)[C@H]2CC[C@@H](CNc3nc(NCCc4c[nH]cn4)nc(Nc4ccc(Oc5ccccc5)cc4)n3)[C@@H]1C2	672
Cc1ccc(-c2nnc(Nc3ccc(C(=O)N4CCCCC4)cc3)c3ccccc23)cc1S(=O)(=O)NCC1CCCO1 (configuration not stated)	709
O=C(NC(=O)c1ccccc1)NC1CCN(c2ccnc3cc(Cl)ccc23)C1 (configuration not stated)	584
O=C(/C=C/c1cccc2ccccc12)NCCCCCN1CCC(c2c[nH]c3ccccc23)CC1	1140
O=S(=O)(c1cc(Cl)c(Cl)cc1Cl)N1CCCCC(c2ccc(C(F)(F)F)cc2)=N1	205
Cc1nc2ccccn2c1C1(O)C(=O)Nc2c(Cl)cc(Cl)cc21 (configuration not stated)	1590
COc1ccc2nccc([C@@H](O)CN3CCC(NCc4ccc5cccc(O)c5n4)CC3)c2c1	1130
CN1CCCC(CN2CCN(Cc3ccc(-c4cccc(-c5nc6cc(F)ccc6[nH]5)c4)cc3)CC2)C1 (configuration not stated)	184
CC(=O)N1N=C(c2ccc(Cl)cc2)Sc2c1nc(C1CCCCC1)n2C(C)=O	249
COc1ccc(OCC(=O)Nc2cc(-c3nc4ccccc4[nH]3)ccc2Cl)cc1	903
Cc1cccc2nc(-c3cccc(-c4cccc(C(=O)NCc5nccn5C)c4)c3)[nH]c12	528
COc1ccc(C2C(C(=O)Nc3ccc4c(c3)OCO4)c3cc(OC)c(OC)cc3C(=O)N2C)cc1 (configuration not stated)	1040
Cc1oc(-c2cccc(Oc3ccccc3)c2)nc1CN(Cc1cnn(C)c1)C(C)C	1090
Cc1cccc2nc(-c3cccc(-c4ccc(NC(=O)Nc5ccc(F)c(F)c5F)cc4)c3)[nH]c12	168
Cc1nc(-c2cccc(Nc3nccc(NCC(O)c4ccc(C(F)(F)F)cc4)n3)c2)cs1 (configuration not stated)	511
CN1CCN(c2ccnc3ccc(NC(=O)Nc4cccc(C#N)c4)cc23)CC1	799
COc1cc2ccccc2cc1CCNCCCCNCCc1cc2ccccc2cc1OC	403
O=C(Nc1ccc(Cl)cc1)Nc1ccc(-c2cccc(-c3nc4cc(F)ccc4[nH]3)c2)cc1	292
O=C(Nc1cccc(CN2CCCN(Cc3ccc(F)cc3)CC2)c1)c1cc2ccccc2s1	794
O=C(Nc1ccc(Cl)cc1)c1ccc(S(=O)(=O)NCC2CCN(CC3CCCCC3)CC2)cc1	857
CCOC(=O)C1=C(C)NC2=C(C(=O)CC(C)(C)C2)C1c1ccc(Cl)cc1 (configuration not stated)	923
COc1cc(OCCCN(C)Cc2ccc(OC)c(OC)c2)ccc1NC(=O)c1cccc2c(O)c3cccc(F)c3nc12	891

— ChEMBL document CHEMBL1157539, “Thousands of chemical starting points for antimalarial lead identification” (Nature, 2010)
